Test results as given in patent US11926600B2, “Sulfonylureas and sulfonylthioureas as NLRP3 inhibitors” (Inflazome Limited, priority 2017, dated 2024).

Experiments:
NLRP3 [1] = molecular target: T1, NLRP3 (Homo sapiens, UniProt Q96P20); assay: THP-1 cells pyroptosis assay; type: cell-based; set-up: Seed THP-1 cells (25,000 cells/well) containing 1.0 μg/ml LPS; host or cells: THP-1 cells, LPS-primed, nigericin-stimulated; conditions: LPS 1 μg/ml, nigericin 5 μM, resazurin readout
Procedure: THP-1 Cells: Culture and Preparation
The cells were routinely passaged and grown to confluency (˜10^6 cells/ml). On the day of the experiment, THP-1 cells were harvested and resuspended into RPMI medium (without FBS). The cells were then counted and viability (>90%) checked by Trypan blue (Sigma #T8154). […] To this diluted cell solution was added LPS (Sigma #L4524) to give a 1 μg/ml Final Assay Concentration (FAC). 40 μl of the final preparation was aliquoted into each well of a 96-well plate. The plate thus prepared was used for compound screening.
THP-1 Cells Pyroptosis Assay
The following method step-by-step assay was followed for compound screening. • 1. […] Incubate for 3 hrs at 37° C. in 5% CO2 • 4. Add 5 μl nigericin (Sigma #N7143) (FAC 5 μM) to all wells • 5. Incubate for 1 hr at 37° C. and 5% CO2 • 6. At the end of the incubation period, spin plates at 300×g for 3 mins and remove supernatant • 7. Then add 50 μl of resazurin (Sigma #R7017) (FAC 100 μM resazurin in RPMI medium without FBS) and incubate plates for a further 1-2 hrs at 37° C. and 5% CO2 • 8. […] IC50 data is fitted to a non-linear regression equation (log inhibitor vs response-variable slope 4-parameters)

NLRP3 [2] = molecular target: T1, NLRP3; assay: Human whole blood IL1β release assay; type: cell-based; set-up: Plate out 80 μl of whole blood containing 1 μg/ml of LPS; from tissue; host or cells: human whole blood from healthy donors, LPS-primed, nigericin-stimulated; conditions: LPS 1 μg/ml, nigericin 10 μM, IL-1β AlphaLisa, read-out: HWB IC50
Procedure: Human Whole Blood IL1β Release Assay
For systemic delivery, the ability to inhibit NLRP3 when the compounds are present within the bloodstream is of great importance. For this reason, the NLRP3 inhibitory activity of a number of compounds in human whole blood was investigated in accordance with the following protocol.
Human whole blood in Li-heparin tubes was obtained from healthy donors from a volunteer donor panel. • 1. Plate out 80 μl of whole blood containing 1 μg/ml of LPS in 96-well, clear bottom cell culture plate (Corning #3585) • 2. Add 10 μl compound (8 points half-log dilution with 10 μM top dose) or vehicle (DMSO 0.1% FAC) to the appropriate wells • 3. Incubate for 3 hrs at 37° C. 5% CO2 • 4. Add 10 μl Nigericin (Sigma #N7143) (10 μM FAC) to all wells • 5. Incubate for 1 hr at 37° C. 5% CO2 • 6. At the end of the incubation period, spin plates at 300×g for 5 mins to pellet cells and remove 20 μl of supernatant and add to 96-well v-bottom plates for IL-1β analysis (note: these plates containing the supernatants can be stored at −80° C. to be analysed at a later date) • 7. IL-1β was measured according to the manufacturer protocol (Perkin Elmer-AlphaLisa IL-1 Kit AL220F-5000) • 8. IC50 data is fitted to a non-linear regression equation (log inhibitor vs response-variable slope 4-parameters)

T1 sequence (Q96P20 whole entry): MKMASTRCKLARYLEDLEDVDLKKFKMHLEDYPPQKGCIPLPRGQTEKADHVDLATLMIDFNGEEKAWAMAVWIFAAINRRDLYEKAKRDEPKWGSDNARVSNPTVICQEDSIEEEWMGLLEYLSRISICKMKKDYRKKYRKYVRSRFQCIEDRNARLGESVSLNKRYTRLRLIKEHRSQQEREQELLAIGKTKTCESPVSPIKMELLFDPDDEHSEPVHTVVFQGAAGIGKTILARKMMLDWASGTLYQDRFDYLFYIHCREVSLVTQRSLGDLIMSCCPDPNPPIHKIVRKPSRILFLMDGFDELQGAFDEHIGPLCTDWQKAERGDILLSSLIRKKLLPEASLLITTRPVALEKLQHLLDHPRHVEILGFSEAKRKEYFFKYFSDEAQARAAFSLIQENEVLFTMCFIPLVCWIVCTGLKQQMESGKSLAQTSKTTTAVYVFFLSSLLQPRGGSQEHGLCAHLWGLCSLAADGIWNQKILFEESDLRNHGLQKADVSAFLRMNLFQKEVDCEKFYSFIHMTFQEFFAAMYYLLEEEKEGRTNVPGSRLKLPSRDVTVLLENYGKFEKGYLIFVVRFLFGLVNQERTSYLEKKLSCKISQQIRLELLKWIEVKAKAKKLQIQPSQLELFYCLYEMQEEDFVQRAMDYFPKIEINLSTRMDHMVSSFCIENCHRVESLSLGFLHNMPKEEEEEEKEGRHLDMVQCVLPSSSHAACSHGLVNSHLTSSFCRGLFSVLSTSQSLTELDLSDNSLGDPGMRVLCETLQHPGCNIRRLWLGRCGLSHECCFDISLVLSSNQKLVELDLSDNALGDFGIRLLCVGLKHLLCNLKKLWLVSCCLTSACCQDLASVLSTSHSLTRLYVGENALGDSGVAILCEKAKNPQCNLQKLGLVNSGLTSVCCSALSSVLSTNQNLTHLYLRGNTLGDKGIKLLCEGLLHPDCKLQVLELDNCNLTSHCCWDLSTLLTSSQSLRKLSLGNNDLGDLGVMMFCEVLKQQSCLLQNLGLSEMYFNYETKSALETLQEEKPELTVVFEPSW

For `C[C@H](O)Cn1cnc(S(=O)(=O)NC(=O)Nc2c3c(cc4c2CCC4)CCC3)c1` [Example 2, (S)—N-((1,2,3,5,6,7-Hexahydro-s-indacen-4-yl)carbamoyl)-1-(2-hydroxypropyl)-1H-imidazole-4-sulfonamide], the IC50 (NLRP3 [1]) was 0.16 to 0.64 µM and the IC50 (NLRP3 [2]) was 0.8 to 1.6 µM.
`CC(C)c1cc(F)cc(-c2cnn(C)c2)c1NC(=O)NS(=O)(=O)c1cn(C(C)C)cn1` [Example 10, N-((4-Fluoro-2-isopropyl-6-(i-methyl-1H-pyrazol-4-yl)phenyl)carbamoyl)-1-isopropyl-1H-imidazole-4-sulfonamide] was tested, and the IC50 (NLRP3 [1]) was 2.56 to 10 µM.
`COc1cc(-c2ccc3c(c2NC(=O)NS(=O)(=O)c2cn(C(C)C)cn2)CCC3)ccn1` [Example 21] gave an IC50 (NLRP3 [1]) of 0.04 to 0.16 µM and an IC50 (NLRP3 [2]) of 0.4 to 0.8 µM.
For `CC(C)n1cnc(S(=O)(=O)NC(=O)Nc2c3c(cc4c2CCC4)CCC3)c1` [Example 15, N-((1,2,3,5,6,7-Hexahydro-s-indacen-4-yl)carbamoyl)-1-isopropyl-1H-imidazole-4-sulfonamide], the IC50 (NLRP3 [1]) was 0.16 to 0.64 µM and the IC50 (NLRP3 [2]) was 1.6 to 3.2 µM.
`CC(C)c1cc(F)cc(-c2ccnc(C#N)c2)c1NC(=O)NS(=O)(=O)c1cn(C(C)C)cn1` [Example 4, N-((2-(2-Cyanopyridin-4-yl)-4-fluoro-6-isopropylphenyl)carbamoyl)-1-isopropyl-1H-imidazole-4-sulfonamide] showed an IC50 (NLRP3 [1]) of 0.16 to 0.64 µM and an IC50 (NLRP3 [2]) of 0.4 to 0.8 µM.
`C[C@@H](O)Cn1cnc(S(=O)(=O)NC(=O)Nc2c3c(cc4c2CCC4)CCC3)c1` [Example 1, (R)—N-((1,2,3,5,6,7-Hexahydro-s-indacen-4-yl)carbamoyl)-1-(2-hydroxypropyl)-1H-imidazole-4-sulfonamide] gave an IC50 (NLRP3 [1]) of 0.16 to 0.64 µM and an IC50 (NLRP3 [2]) of 0.8 to 1.6 µM.
Work on `CC(C)c1nc(S(=O)(=O)NC(=O)Nc2c3c(cc4c2CCC4)CCC3)cn1C` [Example 13, N-((1,2,3,5,6,7-Hexahydro-s-indacen-4-yl)carbamoyl)-2-isopropyl-1-methyl-1H-imidazole-4-sulfonamide] yielded an IC50 (NLRP3 [1]) of 0.64 to 2.56 µM and an IC50 (NLRP3 [2]) of 3.2 to 10 µM.
Work on `CC(C)c1ncc(S(=O)(=O)NC(=O)Nc2c3c(cc4c2CCC4)CCC3)n1C` [Example 8, N-((1,2,3,5,6,7-Hexahydro-s-indacen-4-yl)carbamoyl)-2-isopropyl-1-methyl-1H-imidazole-5-sulfonamide] yielded an IC50 (NLRP3 [1]) of 0.16 to 0.64 µM.
`Cc1nc(S(=O)(=O)NC(=O)Nc2c3c(cc4c2CCC4)CCC3)cn1C(C)C` [Example 7, N-((1,2,3,5,6,7-Hexahydro-s-indacen-4-yl)carbamoyl)-1-isopropyl-2-methyl-1H-imidazole-4-sulfonamide] showed an IC50 (NLRP3 [1]) of 0.16 to 0.64 µM and an IC50 (NLRP3 [2]) of 1.6 to 3.2 µM.
`Cc1nc(S(=O)(=O)NC(=O)Nc2c3c(cc4c2CCC4)CCC3)cn1CC1CCCO1` (stereo not drawn) [Example 16, N-((1,2,3,5,6,7-Hexahydro-s-indacen-4-yl)carbamoyl)-2-methyl-1-((tetrahydrofuran-2-yl)methyl)-1H-imidazole-4-sulfonamide] gave an IC50 (NLRP3 [1]) of 0.16 to 0.64 µM and an IC50 (NLRP3 [2]) of 0.8 to 1.6 µM.
In the case of `Cn1cnc(S(=O)(=O)NC(=O)Nc2c3c(cc4c2CCC4)CCC3)c1` [Example 12, N-((1,2,3,5,6,7-Hexahydro-s-indacen-4-yl)carbamoyl)-1-methyl-1H-imidazole-4-sulfonamide], the IC50 (NLRP3 [1]) is reported as 0.64 to 2.56 µM.
`CC(C)n1cnc(S(=O)(=O)NC(=O)Nc2c(-c3ccnc(C#N)c3)ccc3c2CCC3)c1` [Example 20] gave an IC50 (NLRP3 [1]) of less than 0.04 µM and an IC50 (NLRP3 [2]) of less than 0.4 µM.
With `COc1cc(-c2cc(F)cc(C(C)C)c2NC(=O)NS(=O)(=O)c2cn(C(C)C)cn2)ccn1` [Example 5, N-((4-Fluoro-2-isopropyl-6-(2-methoxypyridin-4-yl)phenyl)carbamoyl)-1-isopropyl-1H-imidazole-4-sulfonamide] the IC50 (NLRP3 [1]) was 0.04 to 0.16 µM and the IC50 (NLRP3 [2]) was 0.8 to 1.6 µM.
For `Cn1ccnc1S(=O)(=O)NC(=O)Nc1c2c(cc3c1CCC3)CCC2` [Example 9, N-((1,2,3,5,6,7-Hexahydro-s-indacen-4-yl)carbamoyl)-1-methyl-1H-imidazole-2-sulfonamide], the IC50 (NLRP3 [1]) was 2.56 to 10 µM.
Work on `CC(C)c1cccc(C(C)C)c1NC(=O)NS(=O)(=O)c1cn(C(C)C)cn1` [Example 14, N-((2,6-Diisopropylphenyl)carbamoyl)-1-isopropyl-1H-imidazole-4-sulfonamide] yielded an IC50 (NLRP3 [1]) of 2.56 to 10 µM.
`CN(C)CCn1cnc(S(=O)(=O)NC(=O)Nc2c3c(cc4c2CCC4)CCC3)c1` [Example 3, 1-(2-(Dimethylamino)ethyl)-N-((1,2,3,5,6,7-hexahydro-s-indacen-4-yl)carbamoyl)-1H-imidazole-4-sulfonamide] was tested, and the IC50 (NLRP3 [1]) was 0.64 to 2.56 µM and the IC50 (NLRP3 [2]) was 1.6 to 3.2 µM.
Work on `CN(C)Cc1c(S(=O)(=O)NC(=O)Nc2c3c(cc4c2CCC4)CCC3)ncn1C` [Example 19] yielded an IC50 (NLRP3 [1]) of 0.16 to 0.64 µM and an IC50 (NLRP3 [2]) of 0.8 to 1.6 µM.
With `Cc1nc(S(=O)(=O)NC(=O)Nc2c3c(cc4c2CCC4)CCC3)cn1CCO` [Example 17, N-((1,2,3,5,6,7-Hexahydro-s-indacen-4-yl)carbamoyl)-1-(2-hydroxyethyl)-2-methyl-1H-imidazole-4-sulfonamide] the IC50 (NLRP3 [1]) was 0.64 to 2.56 µM and the IC50 (NLRP3 [2]) was 0.8 to 1.6 µM.
`CCn1cc(S(=O)(=O)NC(=O)Nc2c3c(cc4c2CCC4)CCC3)nc1C` [Example 6, 1-Ethyl-N-((1,2,3,5,6,7-hexahydro-s-indacen-4-yl)carbamoyl)-2-methyl-1H-imidazole-4-sulfonamide] showed an IC50 (NLRP3 [1]) of 0.16 to 0.64 µM and an IC50 (NLRP3 [2]) of 3.2 to 10 µM.
